Data from patent publication US11814444B2, “Cyclic polypeptides for PCSK9 inhibition” (Ra Pharmaceuticals, Inc., priority 2018, dated 2023).
Numbered stars: 1 amine (or outer) side, 2 acyl side, 3 side chain; on linkers, the order of the positions; unused ones are H or OH. Bridge positions count the residues as written; N and C are the ends. Square brackets hold non-standard residues; d marks the D form. Peptide text beside a SMILES is read from it. Trp(7-aza) = N[C@@H](Cc1c[nH]c2ncccc12)C(=O)O; X8 = O=C([C@H](Cc1ccc2[nH]ncc2c1)N[*:1])[*:2]; Gly(piperidin-4-yl) = N[C@H](C(=O)O)C1CCNCC1; Leu(3R-OH) = CC(C)[C@@H](O)[C@H](N)C(=O)O; Phe(4-F) = N[C@@H](Cc1ccc(F)cc1)C(=O)O; 1Nal = N[C@@H](Cc1cccc2ccccc12)C(=O)O; mXylylene = c1cc(C[*:1])cc(C[*:2])c1; 2Pal = N[C@@H](Cc1ccccn1)C(=O)O; 3Thi = N[C@@H](Cc1ccsc1)C(=O)O; Aad = N[C@@H](CCCC(=O)O)C(=O)O; Chg = N[C@H](C(=O)O)C1CCCCC1; Tle = CC(C)(C)[C@H](N)C(=O)O; αMeV = CC(C)[C@](C)(N)C(=O)O; S5 = C=CCCC[C@](C)(N)C(=O)O; Nva = CCC[C@H](N)C(=O)O; Aib = CC(C)(N)C(=O)O; Mpa = O=C(O)CCS

Assays:
PCSK9 = PCSK9 (Homo sapiens, UniProt Q8NBP7); experiment: PCSK9 Alexa FRET Standard assay (displacement of AlexaFluor647 tagged cyclic peptide Reagent A); type: binding; conditions: 0.5 nM PCSK9, 20 nM AF cyclic peptide Reagent A
Sequence of PCSK9 (Q8NBP7 153-692): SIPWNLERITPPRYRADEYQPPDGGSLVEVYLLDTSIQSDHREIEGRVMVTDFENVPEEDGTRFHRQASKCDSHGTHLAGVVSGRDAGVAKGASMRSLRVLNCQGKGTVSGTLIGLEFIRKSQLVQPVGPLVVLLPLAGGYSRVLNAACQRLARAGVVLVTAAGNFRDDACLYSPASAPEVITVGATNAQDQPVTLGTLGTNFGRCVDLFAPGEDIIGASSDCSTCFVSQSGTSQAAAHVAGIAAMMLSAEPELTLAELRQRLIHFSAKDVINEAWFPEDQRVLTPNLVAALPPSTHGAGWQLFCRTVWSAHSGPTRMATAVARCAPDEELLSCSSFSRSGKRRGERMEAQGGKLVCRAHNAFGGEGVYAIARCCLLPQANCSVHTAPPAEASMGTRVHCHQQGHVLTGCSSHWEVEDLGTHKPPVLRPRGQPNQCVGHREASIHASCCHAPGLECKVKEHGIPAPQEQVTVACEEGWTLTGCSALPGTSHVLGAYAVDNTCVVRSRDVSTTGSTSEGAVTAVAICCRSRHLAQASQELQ
Experimental: A solution containing 1 nM biotinylated PCSK9+2.5 nM Lance Streptavidin Europium (Strep-Eu) was made in 50 mM HEPES pH 7.4, 0.15 M NaCl, 5 mM CaCl2), 0.01% BSA, and 0.01% Surfactant P20. A separate solution containing 40 nM of the AlexaFluor tagged cyclic peptide was made in the same buffer system. An Echo was used to transfer 0.750 ul of compound to an assay plate followed by the addition of 15 ul of PCSK9+Stept-Eu and 15 ul of AF peptide. The final assay volume was 30.750 ul containing 0.5 nM PCSK9, 1.25 nM Strep-Eu, and 20 nM AF cyclic peptide. The reaction was incubated at room temperature for at least two hours prior to fluorescence measurements using an Envision Multilabel Reader. IC50 values were determined by fitting data to a sigmoidal dose-response curve using nonlinear regression. Ki was then calculated from the IC50 and the KD of AF cyclic peptide. Counts (B-counts) of the europium-labeled PCSK9 were followed to observe if compounds were […]. A fall off of the B-counts likely indicated a false positive of inhibition. Data from this procedure was reported as “A=‘numerical value’ (nanomolar)”

[1] = target: human PCSK9 / human LDLR EGFa domain interaction (Homo sapiens, UniProt Q8NBP7); experiment: TR-FRET assay of inhibition of the PCSK9-LDLR protein-protein interaction; type: binding; conditions: 20 nM avitag-biotinylated human PCSK9, 20 nM his-tagged human LDLR EGFa domain, 2 hours, room temperature
Sequence of human PCSK9 / human LDLR EGFa domain interaction (Q8NBP7 153-692): as above
Sequence of human PCSK9 / human LDLR EGFa domain interaction (Q8NBP7 31-152 partner limits assumed): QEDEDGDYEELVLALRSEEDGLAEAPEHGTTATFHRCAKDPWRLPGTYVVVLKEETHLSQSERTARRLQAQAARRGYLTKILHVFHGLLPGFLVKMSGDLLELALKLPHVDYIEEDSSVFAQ
Experimental: A time-resolved fluorescence resonance energy (TR-FRET) assay was used to measure inhibition of the PCSK9-LDLR protein-protein interaction. Briefly, 20 nM avitag-biotinylated human PCSK9 was incubated with 20 nM his-tagged human LDLR EGFa domain in the presence of 5 nM LANCE Ulight Streptavidin (Perkin Elmer) and 5 nM europium-Anti-6×His (Perkin Elmer) for 2 hours covered at room temperature in buffer containing 50 mM HEPES, 150 mM NaCl, 5 mM CaCl2), 0.01% BSA and 0.01% Surfactant P20. Compounds were tested in dose-response and concentrations giving half-maximal inhibition calculated using a 4-parameter fit equation.

| IC50 (PCSK9) [µM] | IC50 [1] [µM] | SMILES |
| --- | --- | --- |
| 0.1 to 1 |  | CCC[C@@H]1NC(=O)[C@H](Cc2ccc(O)cc2)NC(=O)[C@H](CCC(=O)O)NC(=O)C(C)(C)NC(=O)[C@H](Cc2c[nH]c3ncccc23)NC(=O)[C@H]([C@@H](C)O)NC(=O)[C@H](Cc2c[nH]cn2)NC(=O)[C@H](Cc2ccc(O)cc2)NC(=O)[C@H](C(C)(C)C)NC(=O)CCSCc2cccc(c2)CSC[C@@H](C(N)=O)NC(=O)[C@H]([C@@H](C)O)NC1=O [Compound 268] ([Mpa][Tle]YHT[Trp(7-aza)][Aib]EY[Nva]TC-NH2; linker 1-12 via mXylylene) |
| 50 to 100 |  | CCC[C@H](NC(C)=O)C(=O)N[C@H]1CSCc2cccc(c2)CSC[C@@H](C(N)=O)NC(=O)[C@H]([C@@H](C)O)NC(=O)[C@H](CCC)NC(=O)[C@H](Cc2ccc(O)cc2)NC(=O)[C@H](C)NC(=O)[C@H](CCC)NC(=O)[C@H](Cc2c[nH]c3ncccc23)NC(=O)[C@H]([C@@H](C)O)NC(=O)[C@H](Cc2cnc[nH]2)NC(=O)[C@H](Cc2ccc(O)cc2)NC(=O)[C@H](C(C)(C)C)NC1=O [Compound 258] (Ac-[Nva]C[Tle]YHT[Trp(7-aza)][Nva]AY[Nva]TC-NH2; linker 2-13 via mXylylene) |
| 1 to 21 |  | CCC[C@@H]1NC(=O)[C@H](Cc2c[nH]c3ncccc23)NC(=O)[C@H]([C@@H](C)O)NC(=O)[C@H](Cc2c[nH]cn2)NC(=O)[C@H](Cc2ccc(O)cc2)NC(=O)[C@H](C(C)(C)C)NC(=O)CCSCc2cccc(c2)CSC[C@@H](C(N)=O)NC(=O)[C@H]([C@@H](C)O)NC(=O)[C@H](CCC)NC(=O)[C@H](Cc2ccc(F)cc2)NC(=O)[C@H](CCC(=O)O)NC1=O [Compound 266] ([Mpa][Tle]YHT[Trp(7-aza)][Nva]E[Phe(4-F)][Nva]TC-NH2; linker 1-12 via mXylylene) |
| 50 to 100 |  | CCC[C@@H]1NC(=O)[C@H](Cc2ccccn2)NC(=O)[C@H]([C@@H](C)O)NC(=O)[C@H](Cc2c[nH]cn2)NC(=O)[C@H](Cc2ccc(O)cc2)NC(=O)[C@H](C(C)(C)C)NC(=O)CCSCc2cccc(c2)CSC[C@@H](C(N)=O)NC(=O)[C@H]([C@@H](C)O)NC(=O)[C@H](CCC)NC(=O)[C@H](Cc2ccc(O)cc2)NC(=O)[C@H](CCC(=O)O)NC1=O [Compound 271] ([Mpa][Tle]YHT[2Pal][Nva]EY[Nva]TC-NH2; linker 1-12 via mXylylene) |
|  | 1 to 21 | CCC[C@@H]1NC(=O)[C@H](Cc2c[nH]c3ncccc23)NC(=O)[C@H]([C@@H](C)O)NC(=O)[C@H](Cc2c[nH]cn2)NC(=O)[C@H](Cc2ccc(O)cc2)NC(=O)[C@H](C(C)(C)C)NC(=O)CCSCc2cccc(c2)CSC[C@@H](C(N)=O)NC(=O)[C@H]([C@@H](C)O)NC(=O)[C@H](C2CCNCC2)NC(=O)[C@H](Cc2ccc(O)cc2)NC(=O)[C@H](CCC(=O)O)NC1=O [Compound 331] ([Mpa][Tle]YHT[Trp(7-aza)][Nva]EY[Gly(piperidin-4-yl)]TC-NH2; linker 1-12 via mXylylene) |
|  | 1 to 21 | CCC[C@@H]1NC(=O)[C@H](Cc2c[nH]c3ncccc23)NC(=O)[C@H]([C@H](O)C(C)C)NC(=O)[C@H](Cc2c[nH]cn2)NC(=O)[C@H](Cc2ccc(O)cc2)NC(=O)[C@H](C(C)(C)C)NC(=O)CCSCc2cccc(c2)CSC[C@@H](C(N)=O)NC(=O)[C@H]([C@@H](C)O)NC(=O)[C@H](CCC)NC(=O)[C@H](Cc2ccc(O)cc2)NC(=O)[C@H](CCC(=O)O)NC1=O [Compound 305] ([Mpa][Tle]YH[Leu(3R-OH)][Trp(7-aza)][Nva]EY[Nva]TC-NH2; linker 1-12 via mXylylene) |
|  | 0.1 to 1 | CCC[C@@H]1NC(=O)[C@H](Cc2c[nH]c3ncccc23)NC(=O)[C@H]([C@@H](C)O)NC(=O)[C@H](Cc2c[nH]cn2)NC(=O)[C@H](Cc2ccc(O)cc2)NC(=O)[C@H](C(C)(C)C)NC(=O)CCSCc2cccc(c2)CSC[C@@H](C(N)=O)NC(=O)[C@H]([C@@H](C)O)NC(=O)[C@H](C2CCCCC2)NC(=O)[C@H](Cc2ccc(O)cc2)NC(=O)[C@H](CCC(=O)O)NC1=O [Compound 285] ([Mpa][Tle]YHT[Trp(7-aza)][Nva]EY[Chg]TC-NH2; linker 1-12 via mXylylene) |

Further lines, the compound ahead of its results:

| SMILES | IC50 (PCSK9) [µM] | IC50 [1] [µM] |
| --- | --- | --- |
| CCC[C@H](NC(C)=O)C(=O)N[C@H]1CSCc2cccc(c2)CSC[C@@H](C(N)=O)NC(=O)[C@H]([C@@H](C)O)NC(=O)[C@H](CCC)NC(=O)[C@H](Cc2c[nH]c3ncccc23)NC(=O)[C@H](CCC(=O)O)NC(=O)[C@H](CCC)NC(=O)[C@H](Cc2c[nH]c3ncccc23)NC(=O)[C@H]([C@@H](C)O)NC(=O)[C@H](Cc2c[nH]cn2)NC(=O)[C@H](Cc2ccc(O)cc2)NC(=O)[C@H](C(C)(C)C)NC1=O [Compound 243] (Ac-[Nva]C[Tle]YHT[Trp(7-aza)][Nva]E[Trp(7-aza)][Nva]TC-NH2; linker 2-13 via mXylylene) | 50 to 100 |  |
| CC(=O)N[C@H]1CSCc2cccc(c2)CSC[C@H](C(N)=O)NC(=O)[C@H]([C@@H](C)O)NC(=O)[C@H](C)NC(=O)[C@H](Cc2ccc(O)cc2)NC(=O)[C@H](CCC(=O)O)NC(=O)[C@H](C)NC(=O)[C@H](Cc2c[nH]c3ncccc23)NC(=O)[C@H]([C@@H](C)O)NC(=O)[C@H](Cc2c[nH]cn2)NC(=O)[C@H](Cc2ccc(O)cc2)NC(=O)[C@H](C(C)(C)C)NC1=O [Compound 245] (Ac-C[Tle]YHT[Trp(7-aza)]AEYAT[dC]-NH2; linker 1-12 via mXylylene) | 50 to 100 |  |
| CCC[C@@H]1NC(=O)[C@H](Cc2c[nH]c3ncccc23)NC(=O)[C@H]([C@@H](C)O)NC(=O)[C@H](Cc2c[nH]cn2)NC(=O)[C@H](Cc2ccc(O)cc2)NC(=O)[C@H](C(C)(C)C)NC(=O)CCSCc2cccc(c2)CSC[C@@H](C(N)=O)NC(=O)[C@H]([C@@H](C)O)NC(=O)[C@H](CCC)NC(=O)[C@H](Cc2ccc3[nH]ncc3c2)NC(=O)[C@H](CCC(=O)O)NC1=O [Compound 257] ([Mpa][Tle]YHT[Trp(7-aza)][Nva]E[X8][Nva]TC-NH2; linker 1-12 via mXylylene) | 50 to 100 |  |
| CCC[C@@H]1NC(=O)[C@H](Cc2c[nH]c3ncccc23)NC(=O)[C@H]([C@@H](C)O)NC(=O)[C@@H]2CCCN2C(=O)[C@H](Cc2ccc(O)cc2)NC(=O)[C@H](C(C)(C)C)NC(=O)CCSCc2cccc(c2)CSC[C@@H](C(N)=O)NC(=O)[C@H]([C@@H](C)O)NC(=O)[C@H](CCC(=O)O)NC(=O)[C@H](Cc2ccc(O)cc2)NC(=O)[C@H](C)NC1=O [Compound 160] ([Mpa][Tle]YPT[Trp(7-aza)][Nva]AYETC-NH2; linker 1-12 via mXylylene) |  | 0.1 to 1 |
| C=CCCC[C@]1(C)NC(=O)[C@H](Cc2cccc3ccccc23)NC(=O)[C@H]([C@@H](C)O)NC(=O)[C@@H]2CCCN2C(=O)[C@H](Cc2ccc(O)cc2)NC(=O)[C@H](C(C)(C)C)NC(=O)[C@@H](NC(C)=O)CCCC(=O)NCCCC[C@@H](C(N)=O)NC(=O)[C@](C)(CCCC=C)NC(=O)[C@H](CCC)NC(=O)[C@H](Cc2ccc(O)cc2)NC(=O)[C@H](C)NC1=O [Compound 044] (Ac-[Aad][Tle]YPT[1Nal][S5]AY[Nva][S5]K-NH2; lactam 1-12) |  | 0.1 to 1 |
| CCC[C@@H]1NC(=O)[C@H](Cc2c[nH]c3ncccc23)NC(=O)[C@H]([C@@H](C)O)NC(=O)[C@H](Cc2ccsc2)NC(=O)[C@H](Cc2ccc(O)cc2)NC(=O)[C@H](C(C)(C)C)NC(=O)CCSCc2cccc(c2)CSC[C@@H](C(N)=O)NC(=O)[C@H]([C@@H](C)O)NC(=O)[C@H](CCC)NC(=O)[C@H](Cc2ccc(O)cc2)NC(=O)[C@H](CCC(=O)O)NC1=O [Compound 119] ([Mpa][Tle]Y[3Thi]T[Trp(7-aza)][Nva]EY[Nva]TC-NH2; linker 1-12 via mXylylene) |  | 1 to 21 |
| CCC[C@@H]1NC(=O)[C@H]([C@@H](C)O)NC(=O)[C@@H]2CCCN2C(=O)[C@H](Cc2ccc(O)cc2)NC(=O)[C@H](C(C)(C)C)NC(=O)[C@@H](NC(C)=O)CSCc2cccc(c2)CSC[C@@H](C(N)=O)NC(=O)[C@H]([C@@H](C)O)NC(=O)[C@](C)(C(C)C)NC(=O)[C@H](Cc2ccc(O)cc2)NC(=O)[C@H](C)NC1=O [Compound 173] (Ac-C[Tle]YPT[Nva]AY[αMeV]TC-NH2; linker 1-11 via mXylylene) |  | 0.1 to 1 |
| CCC[C@@H]1NC(=O)[C@H](Cc2c[nH]c3ncccc23)NC(=O)[C@H]([C@@H](C)O)NC(=O)[C@@H]2CCCN2C(=O)[C@H](Cc2ccc(O)cc2)NC(=O)[C@H](C(C)(C)C)NC(=O)CCSCc2cccc(c2)CSC[C@@H](C(N)=O)NC(=O)[C@H]([C@@H](C)O)NC(=O)[C@H](CCC)NC(=O)[C@H](Cc2ccc(O)cc2)NC(=O)[C@H](C)NC1=O [Compound 157] ([Mpa][Tle]YPT[Trp(7-aza)][Nva]AY[Nva]TC-NH2; linker 1-12 via mXylylene) |  | 0.1 to 1 |
| CCC[C@@H]1NC(=O)[C@H](Cc2c[nH]c3ncccc23)NC(=O)[C@H]([C@@H](C)O)NC(=O)[C@@H]2CCCN2C(=O)[C@H](Cc2ccc(O)cc2)NC(=O)[C@H](C(C)(C)C)NC(=O)CCSCc2cccc(c2)CSC[C@@H](C(N)=O)NC(=O)[C@H](CCC(=O)O)NC(=O)[C@H](C2CCCCC2)NC(=O)[C@H](Cc2ccc(O)cc2)NC(=O)[C@H](C)NC1=O [Compound 171] ([Mpa][Tle]YPT[Trp(7-aza)][Nva]AY[Chg]EC-NH2; linker 1-12 via mXylylene) |  | 1 to 21 |
